From ChEMBL document CHEMBL3351771, “Development of inhibitors of the 2C-methyl-D-erythritol 4-phosphate (MEP) pathway enzymes as potential anti-infective agents” (J Med Chem, 2014)
Converted amounts (≈) assume the structure as drawn.

Tests used:
[1] = target: T1, 1-deoxy-D-xylulose-5-phosphate synthase (Haemophilus influenzae (strain 86-028NP), UniProt Q4QKG6); assay: Inhibition of Haemophilus influenzae DXS
T1 sequence (Q4QKG6 whole entry): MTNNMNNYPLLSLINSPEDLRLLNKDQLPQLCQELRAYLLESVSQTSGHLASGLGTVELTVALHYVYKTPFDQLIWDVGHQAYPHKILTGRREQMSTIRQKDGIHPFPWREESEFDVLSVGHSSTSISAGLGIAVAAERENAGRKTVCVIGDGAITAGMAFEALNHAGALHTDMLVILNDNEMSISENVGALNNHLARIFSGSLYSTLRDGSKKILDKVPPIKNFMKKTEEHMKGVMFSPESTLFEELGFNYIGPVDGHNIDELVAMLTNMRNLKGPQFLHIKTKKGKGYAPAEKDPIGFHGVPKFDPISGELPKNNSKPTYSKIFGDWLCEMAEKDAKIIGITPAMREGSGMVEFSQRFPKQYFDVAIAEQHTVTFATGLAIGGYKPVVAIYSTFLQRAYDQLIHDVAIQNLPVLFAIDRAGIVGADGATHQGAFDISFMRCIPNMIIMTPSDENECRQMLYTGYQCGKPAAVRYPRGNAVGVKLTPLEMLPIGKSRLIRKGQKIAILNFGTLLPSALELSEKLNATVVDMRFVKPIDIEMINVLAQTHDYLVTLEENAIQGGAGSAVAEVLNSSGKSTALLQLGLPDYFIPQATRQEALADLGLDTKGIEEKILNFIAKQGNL

[2] = Inhibition of Chlamydomonas DXS
Haemophilus influenzae = assay: Antimicrobial activity against Haemophilus influenzae; type: functional
[3] = Inhibition of Escherichia coli IspE
[4] = Inhibition of tomato IspE; design: species or system Solanum lycopersicum
[5] = Inhibition of Plasmodium falciparum NF54 IspE
Escherichia coli [6] = assay: Inhibition of Escherichia coli IspF at 500 uM
Escherichia coli [7] = assay: Inhibition of Escherichia coli IspF at 500 uM after 30 mins preincubation
[8] = Inhibition of Arabidopsis thaliana DXS
[9] = Inhibition of Arabidopsis thaliana IspD
[10] = Inhibition of Aquifex aeolicus IspH
[11] = target: T2, 1-deoxy-D-xylulose-5-phosphate synthase (Deinococcus radiodurans (strain ATCC 13939 / DSM 20539 / JCM 16871 /LMG 4051 / NBRC 15346 / NCIMB 9279 / R1 / VKM B-1422), UniProt Q9RUB5); assay: Inhibition of Deinococcus radiodurans DXS
T2 sequence (Q9RUB5 whole entry): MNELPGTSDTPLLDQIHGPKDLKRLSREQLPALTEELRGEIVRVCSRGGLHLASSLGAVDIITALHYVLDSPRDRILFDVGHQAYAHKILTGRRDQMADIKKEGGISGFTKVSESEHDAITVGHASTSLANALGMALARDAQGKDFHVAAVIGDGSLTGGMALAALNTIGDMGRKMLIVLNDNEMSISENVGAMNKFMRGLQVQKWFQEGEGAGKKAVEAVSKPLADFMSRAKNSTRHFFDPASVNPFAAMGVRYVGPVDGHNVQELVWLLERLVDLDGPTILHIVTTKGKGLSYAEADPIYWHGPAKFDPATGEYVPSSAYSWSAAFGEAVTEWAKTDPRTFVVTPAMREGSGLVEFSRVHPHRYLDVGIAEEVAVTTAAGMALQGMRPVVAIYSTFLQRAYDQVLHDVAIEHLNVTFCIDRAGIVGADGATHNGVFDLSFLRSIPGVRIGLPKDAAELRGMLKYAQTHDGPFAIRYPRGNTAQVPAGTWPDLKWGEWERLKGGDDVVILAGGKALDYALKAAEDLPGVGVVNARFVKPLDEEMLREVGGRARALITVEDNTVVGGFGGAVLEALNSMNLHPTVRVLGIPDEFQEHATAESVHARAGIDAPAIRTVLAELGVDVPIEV

[12] = Inhibition of Escherichia coli IspG
Aquifex aeolicus = assay: Inhibition of Aquifex aeolicus IspH assessed as residual activity at 1 mM
Escherichia coli [13] = assay: Induction of Escherichia coli IspF assessed as fold increase in activity at 500 uM
[14] = Inhibition of Aquifex aeolicus IspE
[15] = Inhibition of Escherichia coli IspD
[16] = Inhibition of Mycobacterium tuberculosis IspF
[17] = Inhibition of Plasmodium falciparum IspF
[18] = target: T3, 1-deoxy-D-xylulose 5-phosphate reductoisomerase (Mycobacterium tuberculosis, UniProt P9WNS1); assay: Inhibition of Mycobacterium tuberculosis Dxr
T3 sequence (P9WNS1 whole entry): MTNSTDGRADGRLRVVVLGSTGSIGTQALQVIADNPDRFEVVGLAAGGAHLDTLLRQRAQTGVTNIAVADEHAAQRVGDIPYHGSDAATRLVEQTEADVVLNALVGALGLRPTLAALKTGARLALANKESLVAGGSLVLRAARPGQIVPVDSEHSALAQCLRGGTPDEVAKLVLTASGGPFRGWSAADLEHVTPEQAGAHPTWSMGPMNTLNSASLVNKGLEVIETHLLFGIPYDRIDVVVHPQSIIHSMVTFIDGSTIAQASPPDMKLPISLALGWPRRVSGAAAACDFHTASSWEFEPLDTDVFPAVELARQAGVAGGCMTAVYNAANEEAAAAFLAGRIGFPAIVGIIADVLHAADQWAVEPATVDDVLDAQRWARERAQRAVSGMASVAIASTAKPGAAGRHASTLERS

[19] = system: Mycobacterium tuberculosis; assay: Antimicrobial activity against Mycobacterium tuberculosis; type: functional, organism-based
[20] = Inhibition of Mycobacterium smegmatis IspD; design: species or system Mycolicibacterium smegmatis
[21] = target: T4, 1-deoxy-D-xylulose-5-phosphate synthase (Escherichia coli O127:H6 (strain E2348/69 / EPEC), UniProt B7UJP3); assay: Inhibition of Escherichia coli DXS
T4 sequence (B7UJP3 whole entry): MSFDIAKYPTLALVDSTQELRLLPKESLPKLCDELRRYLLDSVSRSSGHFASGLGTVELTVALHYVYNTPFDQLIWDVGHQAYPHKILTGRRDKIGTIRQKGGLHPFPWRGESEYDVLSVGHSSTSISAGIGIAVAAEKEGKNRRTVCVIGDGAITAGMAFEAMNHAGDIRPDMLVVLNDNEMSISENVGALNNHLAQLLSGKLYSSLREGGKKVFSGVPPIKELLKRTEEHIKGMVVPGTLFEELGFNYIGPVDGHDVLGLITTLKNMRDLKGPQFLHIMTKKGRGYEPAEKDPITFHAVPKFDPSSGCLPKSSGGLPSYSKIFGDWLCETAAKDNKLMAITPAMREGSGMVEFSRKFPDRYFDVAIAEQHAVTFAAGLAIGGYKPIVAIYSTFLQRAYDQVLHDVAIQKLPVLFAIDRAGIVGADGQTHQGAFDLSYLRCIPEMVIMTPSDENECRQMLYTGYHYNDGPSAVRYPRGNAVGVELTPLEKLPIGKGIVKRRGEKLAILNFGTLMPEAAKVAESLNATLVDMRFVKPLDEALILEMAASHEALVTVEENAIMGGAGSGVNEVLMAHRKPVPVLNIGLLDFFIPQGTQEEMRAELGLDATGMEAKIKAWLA

[22] = Inhibition of Plasmodium falciparum Dxr
[23] = Inhibition of Yersinia pestis DXS
[24] = target: T5, 1-deoxy-D-xylulose-5-phosphate synthase (Mycobacterium tuberculosis, UniProt P9WNS3); assay: Inhibition of Mycobacterium tuberculosis DXS
T5 sequence (P9WNS3 whole entry): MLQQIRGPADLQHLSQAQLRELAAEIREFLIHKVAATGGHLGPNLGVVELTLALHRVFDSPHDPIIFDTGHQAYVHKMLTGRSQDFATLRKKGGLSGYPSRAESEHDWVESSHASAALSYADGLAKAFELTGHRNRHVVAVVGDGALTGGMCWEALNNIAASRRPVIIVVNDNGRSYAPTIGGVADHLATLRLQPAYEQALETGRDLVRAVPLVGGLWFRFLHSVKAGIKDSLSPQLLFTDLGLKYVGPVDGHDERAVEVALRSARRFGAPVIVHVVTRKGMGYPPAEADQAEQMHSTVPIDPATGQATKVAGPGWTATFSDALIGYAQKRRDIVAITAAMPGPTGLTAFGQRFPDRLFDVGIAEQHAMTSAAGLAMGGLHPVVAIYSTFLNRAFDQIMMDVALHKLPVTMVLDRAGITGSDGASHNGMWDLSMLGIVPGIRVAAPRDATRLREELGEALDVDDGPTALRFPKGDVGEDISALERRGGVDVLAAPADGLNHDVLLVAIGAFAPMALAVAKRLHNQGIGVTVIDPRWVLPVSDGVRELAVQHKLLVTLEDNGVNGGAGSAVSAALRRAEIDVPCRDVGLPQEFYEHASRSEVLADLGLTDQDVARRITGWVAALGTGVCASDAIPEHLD

[25] = Inhibition of Salmonella enteric DXS; design: species or system Salmonella enterica
[26] = target: T5, 1-deoxy-D-xylulose-5-phosphate synthase; assay: Binding affinity to Mycobacterium tuberculosis DXS
[27] = target: T2, 1-deoxy-D-xylulose-5-phosphate synthase; assay: Binding affinity to Deinococcus radiodurans DXS

CC1(C)C(=O)ON(Cc2ccccc2Cl)C1=O [KETOCLOMAZONE]
Ki [1]: 23.3 µM
IC50 [2]: 100 µM
MIC (Haemophilus influenzae): 12.5 µg/mL (≈ 49.3 µM)

Cc1[nH]c2ccccc2c1C(Nc1ccccn1)c1ccccc1O (centres undefined)
IC50 [3]: 19 µM

NC1=N/C(=N\NC(=O)c2cc(Cl)ccn2)c2ccc3ccccc3c21
IC50 [4]: 7.2 µM

COC(c1cn(CC#Cc2cn(C3CCCS3)c(=O)nc2N)c(C2CCCCC2)n1)C(F)(F)F (centres undefined)
IC50 [3]: 9.9 µM

NC1=N/C(=N\NC(=O)c2ccccn2)c2ccc3ccccc3c21
IC50 [5]: 0.058 µM

COc1cc(C#Cc2ccc(C#CCOc3cccnc3)cn2)nc(N)n1
IC50 [3]: 8.7 µM

C[C@@](CO)(OP(=O)(O)O)[C@H](O)COP(=O)(O)CP(=O)(O)OC[C@H]1O[C@@H](n2ccc(N)nc2=O)[C@H](O)[C@@H]1O
inhibition (Escherichia coli [6]): 0%
inhibition (Escherichia coli [7]): 37%

O=C(O)c1ccc(-c2ccc(/C=N/NC3Nc4ccccc4S3)o2)cc1 (centres undefined)
IC50 [8]: 33 µM

COc1ccc2nc(NC(=O)c3cc(-c4ccccc4O)n[nH]3)sc2c1
IC50 [9]: 1.8 µM

O=P(O)(O)OP(=O)(O)OCc1cccnc1
IC50 [10]: 38 µM

Cc1ncc(Cc2csc(CCO)c2C)c(N)n1 [3-DEAZATHIAMINE]
IC50 [11]: 430 µM

C#CCOP(=O)(O)OP(=O)(O)O [PROP-2-YNYL DIPHOSPHATE]
IC50 [12]: 0.75 µM

C/C(=C/COC(=O)Nc1ccc(C)cc1)CO
Activity (Aquifex aeolicus): 62%

C[C@@](CO)(OP(=O)(O)O)[C@H](O)COP(=O)(O)CP(=O)(O)O
fold change (FC) (Escherichia coli [13]): 1.6

Nc1nc(=O)n(C2CCCS2)cc1C#CCNS(=O)(=O)C(=O)[C@@H](O)[C@@H](O)[C@H](O)[C@H](O)CO (some centres undefined)
IC50 [3]: 407 µM
IC50 [14]: > 500 µM

Nc1nc(=O)n(C2CCCS2)cc1C#CCNS(=O)(=O)C1CC1 (centres undefined)
IC50 [3]: 1.7 µM

CC(C)(C(=O)O)C(=O)N(O)Cc1ccccc1Cl
IC50 [1]: 1 µM

O=P(O)(O)OC[C@@H](O)[C@@H](O)CO
IC50 [15]: 1360 µM

C/C(=C/CONS(=O)(=O)NC(=O)OC(C)(C)C)CO
Activity (Aquifex aeolicus): 61%

N#Cc1cnn2c(O)c(Cc3ccccc3)c(Cl)cc12
IC50 [9]: 0.035 µM

CCOC(=O)C1=C(C)N=c2s/c(=C\c3cc(Br)c(O)c(Br)c3)c(=O)n2C1C1CCCS1 (centres undefined)
IC50 [16]: 6.1 µM
IC50 [17]: 9.6 µM

O=C(CCCc1ccccc1)N(O)CCCP(=O)(O)O
IC50 [18]: 17.8 µM
IC50 [19]: 17.8 µM

Oc1csc(Nc2nccs2)n1
IC50 [3]: 160 µM

C#CCCOP(=O)(O)OP(=O)(O)O [BUT-3-YNYL DIPHOSPHATE]
IC50 [10]: 0.45 µM

COCCS(=O)(=O)NCC#Cc1cn(C2CCCS2)c(=O)nc1N (centres undefined)
IC50 [3]: 30 µM
IC50 [14]: > 500 µM

Nc1nc(=O)n(C2CCCS2)cc1S(=O)(=O)c1ccccc1 (centres undefined)
IC50 [3]: 220 µM
IC50 [14]: > 500 µM

CCCCCCCCCCCC[N+](C)(C)CCOc1ccccc1.[Br-] [DOMIPHEN BROMIDE]
IC50 [20]: 33 µg/mL

CCOP(=O)(O)C(C)=O
Ki [21]: 6.7 µM

Oc1c(Cc2ccccc2)c(Cl)cc2ncnn12
IC50 [9]: 0.14 µM

COc1ccccc1-c1cnc(N)c(C#CCNS(=O)(=O)C2CC2)c1
IC50 [3]: 242 µM

O=P(O)(O)OP(=O)(O)OCCc1cccnc1 [PYRIDIN-3-YL-ETHYL-DIPHOSPHATE]
IC50 [10]: 9.1 µM

O=c1c2ccccc2nc(-c2cccnc2)n1-c1ccc(Br)cn1
IC50 [3]: 3 µM

CN(O)C(=O)CCC(c1ccccc1)P(=O)(O)O (centres undefined)
IC50 [22]: 0.0031 µM

CCCCOP(=O)(O)C(C)=O
Ki [23]: 7.5 µM
Ki [24]: 4 µM
Ki [21]: 5.6 µM
Ki [25]: 8.4 µM

FC(F)(F)Oc1cccc(Cn2cnc3ccccc32)c1
IC50 [11]: 595 µM

Nc1nc(=O)n(C2CCCO2)cc1C#CCNS(=O)(=O)C1CC1 (centres undefined)
IC50 [3]: 2 µM

CC(=O)P(=O)(O)OCc1ccccc1
Ki [21]: 10.4 µM

COc1ccc(-c2onc(C(F)(F)F)c2-c2ccc(Br)cc2)c(O)c1
IC50 [8]: 32 µM

CC(C)(CO)C(=O)N(O)Cc1ccccc1Cl
IC50 [1]: 3.1 µM
MIC (Haemophilus influenzae): 64 µg/mL (≈ 248 µM)

CN(C)c1ccnc(C(=O)N/N=C2\N=C(N)c3c2ccc2ccccc32)c1
IC50 [5]: 0.018 µM

Cc1ncc(C[n+]2csc(CCO[P@](=O)(O)OP(=O)(O)O)c2C)c(N)n1
Kd [26]: 3.1 µM
Kd [27]: 0.114 µM
